In ChEMBL document CHEMBL3286361, “Design and discovery of flavonoid-based HIV-1 integrase inhibitors targeting both the active site and the interaction with LEDGF/p75” (Bioorg Med Chem, 2014):
Values after ≈ are worked out from the molar mass of the structure shown.

Key:
[1] = Therapeutic index, ratio of CC50 for human C8166 cells to EC50 for HIV-1 3B infected in human C8166 cells; assay type: cell-based; details: HIV-1 3B infected C8166 cells, read-out: Ratio CC50/EC50
[2] = Cytotoxicity against human C8166 cells assessed as inhibition of cell proliferation after 72 hrs by MTT assay; assay type: cell-based
[3] = test system: Human immunodeficiency virus 1; test: Antiviral activity against HIV-1 3B infected in human C8166 cells assessed as inhibition of virus-induced cytopathogenicity by measuring syncytial cell number after 3 days by inverted microscopic analysis; assay type: functional, organism-based; details: Human immunodeficiency virus 1, 3B, C8166, 72 h
[4] = target: T1, Human immunodeficiency virus type 1 integrase (Human immunodeficiency virus 1, UniProt Q7ZJM1); test: Inhibition of His6-tagged HIV-1 integrase assessed as decrease in integrase-Flag-LEDGF/p75 interaction preincubated with enzyme for 30 mins followed by addition of Flag-LEDGF/p75 for 1 hr by AlphaScreen assay
[5] = target: T1, Human immunodeficiency virus type 1 integrase; test: Inhibition of recombinant HIV-1 integrase strand transfer activity using 32P 5' end-labeled linear 21'mer as substrate preincubated for 30 mins prior to substrate challenge by phosphorimaging analysis
[6] = target: T1, Human immunodeficiency virus type 1 integrase; test: Inhibition of recombinant HIV-1 integrase 3'-processing activity using 32P 5' end-labeled linear 21'mer as substrate preincubated for 30 mins prior to substrate challenge by phosphorimaging analysis

T1 sequence (Q7ZJM1 whole entry): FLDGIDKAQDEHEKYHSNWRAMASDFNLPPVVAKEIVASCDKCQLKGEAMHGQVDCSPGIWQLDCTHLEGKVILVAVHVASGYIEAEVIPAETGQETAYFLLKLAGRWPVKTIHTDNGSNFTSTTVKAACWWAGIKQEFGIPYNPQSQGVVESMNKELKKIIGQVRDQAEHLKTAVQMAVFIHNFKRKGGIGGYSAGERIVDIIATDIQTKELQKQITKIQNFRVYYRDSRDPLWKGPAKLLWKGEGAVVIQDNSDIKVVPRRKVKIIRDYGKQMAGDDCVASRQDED

Row | Compound | EC50 [3] [µg/mL] | IC50 [4] [µM] | IC50 [5] [µM] | IC50 [6] [µM] | selectivity ratio [1] | CC50 at 72 h [2] [µg/mL]
1 | CC(C)(C)Oc1cc2oc(-c3ccccc3)cc(=O)c2c(O)c1O | 8.45 (≈ 25.9 µM) | > 20 | > 100 | > 100 | 5 | 40.5 (≈ 124 µM)
2 | CC(C)(C)Oc1cc(O)c2c(=O)cc(-c3ccc(O)cc3)oc2c1 | 3.2 (≈ 9.81 µM) | > 20 | > 20 | > 20 | 8 | 25 (≈ 76.6 µM)
3 | O=c1cc(-c2ccc(O)cc2)oc2cc(N3CCOCC3)cc(O)c12 | 68.4 (≈ 202 µM) | 1.7 | > 20 | > 20 | 1.5 | 105 (≈ 311 µM)
4 | CC(C)(C)Oc1cc(O)c2c(=O)cc(-c3ccccc3)oc2c1 | 12.1 (≈ 39 µM) | > 20 | 50 | > 100 | 5 | 61.2 (≈ 197 µM)
5 | O=c1cc(-c2ccccc2)oc2cc(N3CCOCC3)cc(O)c12 | > 200 | > 20 | > 20 | > 20 | – | > 200
6 | CC(C)(C)Oc1cc(O)c2c(c1)O[C@H](c1ccc(O)cc1)CC2=O | 3.05 (≈ 9.29 µM) | > 20 | > 100 | > 100 | 8 | 25.4 (≈ 77.4 µM)
7 | CC(C)(C)Oc1cc(O)c2c(=O)c(-c3ccc(O)cc3)coc2c1 | > 47.7 | > 20 | 70 | > 100 | – | 47.7 (≈ 146 µM)
8 | O=c1c(-c2ccc(O)cc2)coc2cc(N3CCOCC3)cc(O)c12 | 0.826 (≈ 2.43 µM) | 1.7 | > 20 | > 20 | > 242 | > 200
9 | O=c1cc(-c2ccccc2)oc2cc(O)c(O)c(O)c12 [BAICALEIN] | 1.67 (≈ 6.18 µM) | – | – | – | – | 30.3 (≈ 112 µM)
10 | O=c1cc(-c2ccccc2)oc2cc(O)cc(O)c12 [CHRYSIN] | 13.4 (≈ 52.7 µM) | 1.4 | > 20 | > 20 | 8 | 110 (≈ 433 µM)
11 | O=c1cc(-c2ccc(O)c(O)c2)oc2cc(O)cc(O)c12 [LUTEOLIN] | 2.48 (≈ 8.66 µM) | 0.45 | 8.9 | > 20 | 7 | 17.9 (≈ 62.5 µM)
12 | O=C1C[C@@H](c2ccc(O)cc2)Oc2cc(O)cc(O)c21 [NARINGENIN] | 9.47 (≈ 34.8 µM) | 1.7 | > 20 | > 20 | 15 | 142 (≈ 520 µM)
13 | O=c1c(O)c(-c2ccc(O)c(O)c2)oc2cc(O)cc(O)c12 [QUERCETIN] | 2.05 (≈ 6.78 µM) | 0.6 | 8 | > 20 | 44 | 105 (≈ 347 µM)

The next lines start with results.

Row | EC50 [3] [µg/mL] | IC50 [4] [µM] | IC50 [5] [µM] | IC50 [6] [µM] | Compound | selectivity ratio [1] | CC50 at 72 h [2] [µg/mL]
14 | 1.95 (≈ 4.75 µM) | 0.38 | > 20 | > 20 | O=c1c(OCc2ccc(F)cc2)c(-c2ccc(O)c(O)c2)oc2cc(O)cc(O)c12 | 12 | 22.5 (≈ 54.8 µM)
15 | > 5.68 | 0.94 | 4 | 20 | O=c1c(O)c(-c2ccc(O)c(O)c2)oc2cc(OCc3ccc(F)cc3)cc(O)c12 | – | 5.68 (≈ 13.8 µM)
16 | 5.05 (≈ 13.6 µM) | 0.97 | > 20 | > 20 | O=c1c(O)c(-c2ccc(O)c(O)c2)oc2cc(N3CCOCC3)cc(O)c12 | 5 | 24.7 (≈ 66.5 µM)
17 | 3.04 (≈ 8.03 µM) | > 20 | 7 | > 20 | O=c1cc(-c2ccccc2)oc2cc(OCc3ccc(F)cc3)c(O)c(O)c12 | 2 | 5.8 (≈ 15.3 µM)
18 | 7.37 (≈ 18.7 µM) | – | > 20 | > 20 | O=c1cc(-c2ccc(O)c(O)c2)oc2cc(OCc3ccc(F)cc3)cc(O)c12 | 2 | 16.2 (≈ 41.1 µM)
19 | 2.21 (≈ 6.22 µM) | 1.6 | > 20 | > 20 | O=c1cc(-c2ccc(O)c(O)c2)oc2cc(N3CCOCC3)cc(O)c12 | 29 | 63.6 (≈ 179 µM)
20 | 10.7 (≈ 28.3 µM) | > 20 | 35 | 80 | O=c1cc(-c2ccc(O)cc2)oc2cc(OCc3ccc(F)cc3)cc(O)c12 | 1.6 | 16.8 (≈ 44.4 µM)
21 | > 8.35 | > 20 | > 20 | > 20 | O=c1cc(-c2ccccc2)oc2cc(OCc3ccc(F)cc3)cc(O)c12 | – | 8.35 (≈ 23 µM)
22 | 2.06 (≈ 5.42 µM) | – | > 100 | > 100 | O=C1C[C@@H](c2ccc(O)cc2)Oc2cc(OCc3ccc(F)cc3)cc(O)c21 | 6 | 11.5 (≈ 30.2 µM)
23 | 11 (≈ 29.1 µM) | > 20 | 80 | > 100 | O=c1c(-c2ccc(O)cc2)coc2cc(OCc3ccc(F)cc3)cc(O)c12 | > 18 | > 200
24 | – | > 20 | > 20 | > 20 | O=c1c(O)c(-c2ccc3c(c2)OC(c2ccccc2)(c2ccccc2)O3)oc2cc(O)cc(O)c12 | – | –
25 | 4.54 (≈ 11.1 µM) | 1.8 | 7.6 | > 20 | O=c1c(O)c(-c2ccc(O)c(O)c2)oc2cc(O)cc(OCc3ccc(F)cc3)c12 | 5 | 24 (≈ 58.5 µM)
26 | 0.47 (≈ 1.15 µM) | 1.8 | > 20 | > 20 | O=c1c(O)c(-c2ccc(O)c(OCc3ccc(F)cc3)c2)oc2cc(O)cc(O)c12 | 51 | 23.8 (≈ 58 µM)
27 | 4.1 (≈ 9.99 µM) | 1.4 | > 20 | > 20 | O=c1c(O)c(-c2ccc(OCc3ccc(F)cc3)c(O)c2)oc2cc(O)cc(O)c12 | 6 | 23.4 (≈ 57 µM)
28 | 4.46 (≈ 16.5 µM) | 1.5 | > 20 | > 20 | O=c1cc(-c2ccc(O)cc2)oc2cc(O)cc(O)c12 [APIGENIN] | 4 | 17.2 (≈ 63.6 µM)
29 | 13.9 (≈ 51.4 µM) | 1.1 | > 20 | > 20 | O=c1c(-c2ccc(O)cc2)coc2cc(O)cc(O)c12 [GENISTEIN] | 3 | 36.2 (≈ 134 µM)
